Reference: patent US20250101338A1, “BIOMASS DERIVED SURFACE-ACTIVE COMPOSITIONS AND PRODUCTS” (Cambridge Glycoscience Ltd, priority 2021, published 2025)

What was measured:
Format in all cases: physicochemical
[1] = Relative viscosity, gravity flow time (Example 74); details: 10 mL of 10 wt % sodium dodecyl sulfate + 0.3 g NaCl + 0.655 mL of 30 wt % test solution, 27° C., triplicate
Description: The time taken for precisely 3 mL of testing mixture to pass out of the […] by gravity was recorded. The test was repeated in triplicate. Averaged results are depicted in FIG. 20 and table 9. It was unexpected that example 11 composition recorded such high viscosity over example 14 composition, which differs by a slightly smaller alkyl chain (octyl instead of decyl).

[2] = Dynamic foam tests (Example 69); details: 5 mL of 0.5 wt % aqueous solution, 40 cm^3 air bubbled at 17 cm^3/min
Description: The intensity and approximate decay-rate for the foaming behavior of the surface-active compositions in dilute aqueous solution was determined by dosing 5 mL of 0.5 wt % aqueous solution of surface-active composition to a vertically-aligned 50 m plastic serological pipette (“Stripette”). Air (40 cm^3) was bubbled through the surface-active composition solution at a rate of 17 cm^3/min via a syringe pump and the foam height upon complete addition of air recorded. The foam height was also recorded again 5 min after complete addition of air, 10 min after complete addition of air, 15 m after complete addition of air, 30 min after complete addition of air, 1 hour after complete addition of air and finally 2 hours after complete addition of air.

[3] = Lipophilic substances solubilization test, lemongrass oil (Example 71); details: 2 mL of 5 wt % aqueous solution, stepwise addition of 2.5 μL, duplicate
Description: After each addition, the sample was agitated with a vortex mixture for 60 s and left to stand for 5 min. If no heterogenous phase was observed visually, the oil was said to be fully soluble. If a heterogenous, immiscible biphasic or emulsion was visible, then the saturation limit for that surface-active component was said to have been exceeded. Each surface-active composition was tested in duplicate.

[4] = Flash foam generation test (Example 70); details: 20 mg in 4 mL deionized water (10 wt % [sic]), 2 mL shaken 30 s in 15 mL tube, duplicate average
Description: 20 mg of each surface-active composition for testing was dissolved in deionized water (4 mL) to give a 10 wt % solution, 2 mL was added to a 15 mL FALCON tube. Each falcon tube was secured in a holder before being vigorously shook for 30 seconds. The initial foam height and structure was noted. The foam height was then noted at 5 min, 10 min, 15 min, 30 min, 45 min, 1 hr and 2 hr after the initial measurement. The experiment was repeated in duplicate. Averaged results are depicted in table 5 and FIG. 11.

[5] = Water in oil emulsion stability test (Example 65); details: 0.5 mL water with 2 wt % substance + 1.5 mL sunflower oil, vortex 30 s, visual inspection
Description: 0.5 mL deionized water containing 2 wt % of the stated inventive or comparative compound was added to 1.5 mL commercial, food-grade sunflower oil, in a sample vial. The vials were each agitated with a IKA Vortex mixture for 30 seconds. The vials were left to stand and inspected visually for emulsion quality after 5 minutes, 1 hour, 4 hours and finally 24 h (FIG. 14 and FIG. 15). […] The results also show an unexpected increase in emulsifying performance for the inventive compositions comprising oligosaccharide mixture-derived surface-active agents (such as example 4-6 compositions) compared with those derived from a single monomeric sugar (xylose) alone (such as example 12 and 13 compositions).

[6] = Critical micellular concentration determination (Example 78); details: deionized water
Description: Stock solutions were prepared of known weight concentration (range spanning 0.005 wt %-5.000 wt %) of inventive surface-active compositions (by solution of the appropriate weight of example composition in deionized water). For reference, the surface tension of deionized water in the absence of a surface-active composition is 73 mN. […] The surface tensions of the solutions at the concentration of the CMC were also noted. Results are shown in table 10 and graphical results are depicted in FIG. 22.

[7] = Aqueous solubility noted at preparation
Description: Solid N-decyl xylosylamine (7.6 g) was suspended in 2-propanol (60 mL) and triethylamine (2 equiv.) then acetic anhydride (1.6 equiv.) was added slowly. Stirring continued at ambient temperature for 10 h. Water (50 mL) was added, and the mixture stirred for 5 min. Dichloromethane (50 mL) was added and the phases separated. The aqueous phase was extracted with additional DCM. The combined organic phase washed with saturated aqueous NH4Cl solution, then the aqueous phase extracted with additional DCM. The combined organic phases were dried over anhydrous magnesium sulfate, filtered, then concentrated under reduced pressure to give a yellow oil. The oil was purified by FCC eluting with MeOH (2-15%) in DCM (120 g normal phase silica cartridge with wet loading). Fractions containing the product were combined and evaporated to dryness to give the desired product (4.1 g, 49%) as a yellow gum. LC-MS (Method A), Rt=1.69 min, [M+H]+=332.2. The gum product can be dissolved in water to form solutions of 50 wt % or greater.
The process was carried out in essentially the same manner as in Example 11 a) step (ii) but using the solid product of Example 11 reaction c) step (i) and the crude product was instead purified by FCC eluting with MeOH (2-13%) in DCM. There were obtained 1.4 g of cream gum product. LC-MS (Method A), Rt=1.87 min, [M+H]^+=360.5.

[8] = Emulsion formation with different oil-water ratios (Example 66); details: water-oil ratio 1:2.5, groundnut oil, 3.0 wt % composition
Description: The ability of inventive surface-active compositions to stabilize emulsions in different mass-ratios of vegetable oil and water was investigated. Mixtures of water, vegetable oil and inventive surface-active composition were prepared as per table below, by adding groundnut oil, water, and surface-active composition in the desired mass ratio. The mixtures were heated at 60 C in a homogenizer (stirring for 10 minutes at 800 rpm, then further homogenized at this speed and ambient temperature for 5 min). The visual appearance of each mixture was acknowledged. The mixtures were then treated by centrifugation at 1500 rpm for 5 mi and the visual appearance was again acknowledged.

CCCCCCCCCCN(C(C)=O)C1OC[C@@H](O)[C@H](O)[C@H]1O (stereo partly drawn) [Example 11 composition, N-decyl N-acetyl xylosylamine]
Average time (for 3 mL to pass out of the stripette by gravity) [1]: 270.3 s | Volume of foam after given time ([2]; 0 min): 36.0 cm^3 | Volume of foam after given time ([2]; 5 min): 2.0 cm^3 | Volume of foam after given time ([2]; 15 min): 2.0 cm^3 | Volume of foam after given time ([2]; 30 min): 2.0 cm^3 | Volume of foam after given time ([2]; 1 h): 2.0 cm^3 | Volume of foam after given time ([2]; 2 h): 2.0 cm^3 | Maximum volume of lemongrass oil solubilized [3]: 8.75 µL | Volume of foam after given time ([4]; 0 min): 8.3 cm^3 | Volume of foam after given time ([4]; 5 min): 4.8 cm^3 | Volume of foam after given time ([4]; 15 min): 2.5 cm^3 | Volume of foam after given time ([4]; 30 min): 2.3 cm^3 | Volume of foam after given time ([4]; 1 h): 2.0 cm^3 | Volume of foam after given time ([4]; 2 h): 2.0 cm^3 | Time inspected by which the emulsion first appeared dispersed [5]: 24 h | Solution Surface tension at CMC [6]: 36 mN | CMC ([6]; from surface tension at 0.005-5.000 wt %): 0.04 wt % | Concentration of solutions formed in water ([7]; gum product dissolved in water): ≥ 50 wt % | Aqueous solubility (in words) ([7]; water, room temperature): excellent aqueous solubility | Visual interpretation of results, after centrifugation ([8]; 1500 rpm 5 min): Complete phase-separation | Visual interpretation of results, before centrifugation ([8]; homogenized at 60 C): Emulsion failed to form.
